pEC50, pIC50: −log10 of the molar value.
biological target: T1, Melanocortin receptor 3 (Homo sapiens, UniProt P41968); test: Inhibition of [125I]-NDP- alpha-MSH binding to human melanocortin 3 receptor
T1 sequence (P41968 whole entry): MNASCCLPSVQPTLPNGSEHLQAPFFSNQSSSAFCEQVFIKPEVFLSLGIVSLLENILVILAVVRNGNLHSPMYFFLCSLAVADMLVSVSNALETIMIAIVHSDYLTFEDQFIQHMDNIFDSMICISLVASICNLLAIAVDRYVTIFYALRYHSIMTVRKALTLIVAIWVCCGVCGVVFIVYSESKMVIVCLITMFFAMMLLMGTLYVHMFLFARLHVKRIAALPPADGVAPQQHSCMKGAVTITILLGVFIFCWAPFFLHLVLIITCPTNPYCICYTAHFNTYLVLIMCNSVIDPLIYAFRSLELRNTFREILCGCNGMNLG

| pIC50 | SMILES |
| --- | --- |
| 5.33 | COc1ccc(N2N=C(Sc3ccc(Cl)cc3)CC(CC[C@@H](C)NC(=O)[C@H]3CCNC[C@@H]3c3ccc(F)cc3)C2=O)cc1 (stereo in doubt; 63) [listing 1 of 2 here] |
| 5.80 | COc1ccc(N2N=C(Sc3ccc(Cl)cc3)CC(CC[C@@H](C)NC(=O)C3CNC[C@@H]3c3ccc(F)cc3)C2=O)cc1 (single isomer, unassigned; 67) [listing 1 of 2 here] |

biological target: T1, Melanocortin receptor 3; test: Maximum percentage of cAMP accumulation compared to alpha-MSH at human melanocortin 3 receptor at 10 uM; assay type: functional

| Max [%] | SMILES |
| --- | --- |
| 10 | COc1ccc(N2N=C(Sc3ccc(Cl)cc3)CC(CC[C@@H](C)NC(=O)C3CNC[C@@H]3c3ccc(F)cc3)C2=O)cc1 (single isomer, unassigned; 67) [listing 2 of 2 here] |

biological target: T1, Melanocortin receptor 3; test: Effective concentration against human melanocortin 3 receptor in cAMP release assay; assay type: functional

| pEC50 | SMILES |
| --- | --- |
| 5.96 | COc1ccc(N2N=C(Sc3ccc(Cl)cc3)CC(CC[C@@H](C)NC(=O)[C@H]3CCNC[C@@H]3c3ccc(F)cc3)C2=O)cc1 (stereo in doubt; 63) [listing 1 of 2 here] |

biological target: T2, Melanocortin receptor 5 (Homo sapiens, UniProt P33032); test: Inhibition of [125I]-NDP- alpha-MSH binding to human melanocortin 5 receptor
T2 sequence (P33032 whole entry): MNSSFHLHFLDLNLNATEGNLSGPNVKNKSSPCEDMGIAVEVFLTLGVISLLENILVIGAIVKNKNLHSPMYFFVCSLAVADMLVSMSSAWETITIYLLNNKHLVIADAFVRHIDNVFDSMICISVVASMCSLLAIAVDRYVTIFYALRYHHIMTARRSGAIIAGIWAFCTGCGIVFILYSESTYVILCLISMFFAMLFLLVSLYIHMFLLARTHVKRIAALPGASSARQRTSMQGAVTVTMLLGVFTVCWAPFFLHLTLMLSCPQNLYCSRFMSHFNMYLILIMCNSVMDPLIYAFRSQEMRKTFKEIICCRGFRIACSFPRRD

| pIC50 | SMILES |
| --- | --- |
| 5.51 | COc1ccc(N2N=C(Sc3ccc(Cl)cc3)CC(CC[C@@H](C)NC(=O)[C@H]3CCNC[C@@H]3c3ccc(F)cc3)C2=O)cc1 (stereo in doubt; 63) [listing 1 of 2 here] |
| 6.16 | COc1ccc(N2N=C(Sc3ccc(Cl)cc3)CC(CC[C@@H](C)NC(=O)C3CNC[C@@H]3c3ccc(F)cc3)C2=O)cc1 (single isomer, unassigned; 67) [listing 1 of 2 here] |

biological target: T3, Melanocortin receptor 4 (Homo sapiens, UniProt P32245); test: Inhibition of [125I]-NDP- alpha-MSH binding to human melanocortin 4 receptor
T3 sequence (P32245 whole entry): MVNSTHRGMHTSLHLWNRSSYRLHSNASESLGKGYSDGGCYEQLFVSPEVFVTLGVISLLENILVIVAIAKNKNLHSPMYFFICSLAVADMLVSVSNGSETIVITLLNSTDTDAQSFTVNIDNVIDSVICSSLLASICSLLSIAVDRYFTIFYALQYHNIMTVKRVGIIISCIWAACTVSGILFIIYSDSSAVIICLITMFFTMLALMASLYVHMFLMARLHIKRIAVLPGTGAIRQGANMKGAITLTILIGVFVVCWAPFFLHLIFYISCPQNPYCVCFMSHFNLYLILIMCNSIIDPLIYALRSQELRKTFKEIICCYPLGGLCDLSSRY

| pIC50 | SMILES |
| --- | --- |
| 7.66 | COc1ccc(N2N=C(Sc3ccc(Cl)cc3)CC(CC[C@@H](C)NC(=O)[C@H]3CCNC[C@@H]3c3ccc(F)cc3)C2=O)cc1 (stereo in doubt; 63) [listing 1 of 2 here] |

biological target: T3, Melanocortin receptor 4; test: Effective concentration at human melanocortin 4 receptor in cAMP release assay; assay type: functional

| SMILES | pEC50 |
| --- | --- |
| COc1ccc(-n2nc(Sc3ccc(Cl)cc3)cc(CC[C@@H](C)NC(=O)[C@H]3CCNC[C@@H]3Cc3ccc(F)cc3)c2=O)cc1 | 6.20 |
| COc1ccc(N2N=C(Sc3ccc(Cl)cc3)CC(CC[C@@H](C)NC(=O)C3CNC[C@@H]3c3ccc(F)cc3)C2=O)cc1 (single isomer, unassigned; 67) [listing 1 of 2 here] | 7.18 |

Now from value to compound:

| pEC50 | SMILES |
| --- | --- |
| 7.52 | COc1ccc(N2N=C(Sc3ccc(Cl)cc3)CC(CC[C@@H](C)NC(=O)[C@H]3CCNC[C@@H]3c3ccc(F)cc3)C2=O)cc1 (stereo in doubt; 63) [listing 1 of 2 here] |
| 6.31 | COc1ccc(-n2nc(Sc3ccc(Cl)cc3)cc(CC[C@@H](C)NC(=O)[C@H]3CNCC[C@@H]3c3ccsc3)c2=O)cc1 |
| < 5.30 | COc1ccc(-n2nc(Sc3ccc(Cl)cc3)cc(CC[C@@H](C)NC(=O)[C@H]3CNCC[C@@H]3c3ccc(C(F)(F)F)cc3)c2=O)cc1 |
| 5.96 | COc1ccc(-n2nc(Sc3ccc(Cl)cc3)cc(CC[C@@H](C)NC(=O)[C@H]3CNCC[C@@H]3c3ccc(C)cc3)c2=O)cc1 |

biological target: T2, Melanocortin receptor 5; test: Maximum percentage of cAMP accumulation compared to alpha-MSH at human melanocortin 5 receptor at 10 uM; assay type: functional

| Max [%] | SMILES |
| --- | --- |
| 7 | COc1ccc(N2N=C(Sc3ccc(Cl)cc3)CC(CC[C@@H](C)NC(=O)[C@H]3CCNC[C@@H]3c3ccc(F)cc3)C2=O)cc1 (stereo in doubt; 63) [listing 2 of 2 here] |
| 5 | COc1ccc(N2N=C(Sc3ccc(Cl)cc3)CC(CC[C@@H](C)NC(=O)C3CNC[C@@H]3c3ccc(F)cc3)C2=O)cc1 (single isomer, unassigned; 67) [listing 2 of 2 here] |

biological target: T1, Melanocortin receptor 3; test: Maximum percentage of cAMP accumulation compared to alpha-MSH at human melanocortin 3 receptor; assay type: functional

| Max [%] | SMILES |
| --- | --- |
| 21 | COc1ccc(N2N=C(Sc3ccc(Cl)cc3)CC(CC[C@@H](C)NC(=O)[C@H]3CCNC[C@@H]3c3ccc(F)cc3)C2=O)cc1 (stereo in doubt; 63) [listing 2 of 2 here] |

biological target: T4, Melanocyte-stimulating hormone receptor (Homo sapiens, UniProt Q01726); test: Effective concentration against human melanocortin 1 receptor in cAMP release assay; assay type: functional
T4 sequence (Q01726 whole entry): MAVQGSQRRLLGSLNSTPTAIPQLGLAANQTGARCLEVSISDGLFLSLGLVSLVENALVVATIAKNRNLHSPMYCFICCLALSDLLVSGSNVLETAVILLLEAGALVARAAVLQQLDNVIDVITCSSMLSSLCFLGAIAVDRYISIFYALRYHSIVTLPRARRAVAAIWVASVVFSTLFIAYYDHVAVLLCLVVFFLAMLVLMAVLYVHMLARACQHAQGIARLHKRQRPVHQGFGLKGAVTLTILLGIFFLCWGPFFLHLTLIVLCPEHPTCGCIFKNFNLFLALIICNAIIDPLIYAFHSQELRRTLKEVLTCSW

| pEC50 | SMILES |
| --- | --- |
| 6.66 | COc1ccc(N2N=C(Sc3ccc(Cl)cc3)CC(CC[C@@H](C)NC(=O)[C@H]3CCNC[C@@H]3c3ccc(F)cc3)C2=O)cc1 (stereo in doubt; 63) [listing 1 of 2 here] |
| 6.62 | COc1ccc(N2N=C(Sc3ccc(Cl)cc3)CC(CC[C@@H](C)NC(=O)C3CNC[C@@H]3c3ccc(F)cc3)C2=O)cc1 (single isomer, unassigned; 67) [listing 1 of 2 here] |

biological target: T3, Melanocortin receptor 4; test: Maximum percentage of cAMP accumulation relative to alpha-MSH at human melanocortin 4 receptor at 10 uM; assay type: functional

| Max [%] | SMILES |
| --- | --- |
| 98 | COc1ccc(N2N=C(Sc3ccc(Cl)cc3)CC(CC[C@@H](C)NC(=O)[C@H]3CCNC[C@@H]3c3ccc(F)cc3)C2=O)cc1 (stereo in doubt; 63) [listing 2 of 2 here] |
| 90 | COc1ccc(N2N=C(Sc3ccc(Cl)cc3)CC(CC[C@@H](C)NC(=O)C3CNC[C@@H]3c3ccc(F)cc3)C2=O)cc1 (single isomer, unassigned; 67) [listing 2 of 2 here] |

biological target: T4, Melanocyte-stimulating hormone receptor; test: Inhibition of [125I]-NDP- alpha-MSH binding to human melanocortin 1 receptor

| pIC50 | SMILES |
| --- | --- |
| 5.96 | COc1ccc(N2N=C(Sc3ccc(Cl)cc3)CC(CC[C@@H](C)NC(=O)[C@H]3CCNC[C@@H]3c3ccc(F)cc3)C2=O)cc1 (stereo in doubt; 63) [listing 1 of 2 here] |
| 6.54 | COc1ccc(N2N=C(Sc3ccc(Cl)cc3)CC(CC[C@@H](C)NC(=O)C3CNC[C@@H]3c3ccc(F)cc3)C2=O)cc1 (single isomer, unassigned; 67) [listing 1 of 2 here] |

biological target: T3, Melanocortin receptor 4; test: Maximum percentage of cAMP accumulation compared to alpha-MSH at human melanocortin 4 receptor at 10 uM; assay type: functional

| SMILES | Max [%] |
| --- | --- |
| COc1ccc(-n2nc(Sc3ccc(Cl)cc3)cc(CC[C@H](C)NC(=O)[C@H]3CNCCN3c3ccc(F)cc3)c2=O)cc1 | 9 |
| COc1ccc(-n2nc(Sc3ccc(Cl)cc3)cc(CC[C@@H](C)NC(=O)[C@H]3CCNC[C@@H]3Cc3ccc(F)cc3)c2=O)cc1 | 62 |
| COc1ccc(-n2nc(Sc3ccc(Cl)cc3)cc(CC[C@@H](C)NC(=O)[C@H]3CNCC[C@@H]3c3ccc4ccccc4c3)c2=O)cc1 | 12 |
| COc1ccc(-n2nc(Sc3ccc(Cl)cc3)cc(CC[C@@H](C)NC(=O)[C@H]3CNCC[C@@H]3c3ccc(Cl)cc3Cl)c2=O)cc1 | 2 |
| COc1ccc(-n2nc(Sc3ccc(Cl)cc3)cc(CC[C@@H](C)NC(=O)[C@H]3CNCC[C@@H]3c3cccc(C(F)(F)F)c3)c2=O)cc1 | 40 |
| COc1ccc(-n2nc(Sc3ccc(Cl)cc3)cc(CC[C@@H](C)NC(=O)[C@H]3CCNC[C@@H]3Cc3ccccc3)c2=O)cc1 | 36 |
| COc1ccc(-n2nc(Sc3ccc(Cl)cc3)cc(CC[C@@H](C)NC(=O)[C@H]3CNCC[C@@H]3c3cccc4ccccc34)c2=O)cc1 | 22 |
| COc1ccc(-n2nc(Sc3ccc(Cl)cc3)cc(CC[C@@H](C)NC(=O)[C@H]3CNCC[C@@H]3c3cccc(F)c3)c2=O)cc1 | 29 |
| COc1ccc(-n2nc(Sc3ccc(Cl)cc3)cc(CC[C@@H](C)NC(=O)[C@H]3CNCCN3c3ccc(F)cc3)c2=O)cc1 | 6 |
| COc1ccc(-n2nc(Sc3ccc(Cl)cc3)cc(CC[C@H](C)NC(=O)[C@@H]3CNCCN3c3ccc(F)cc3)c2=O)cc1 | 38 |
| COc1ccc(-n2nc(Sc3ccc(Cl)cc3)cc(CC[C@@H](C)NC[C@@H]3CNCC[C@H]3c3ccc(F)cc3)c2=O)cc1 | 9 |
| COc1ccc(N2N=C(Sc3ccc(Cl)cc3)CC(CC[C@@H](C)NC(=O)[C@@H]3CNCC[C@H]3c3ccc(F)cc3)C2=O)cc1 (stereo in doubt; 60) | 20 |

Now from value to compound:

| Max [%] | SMILES |
| --- | --- |
| 82 | COc1ccc(-n2nc(Sc3ccc(Cl)cc3)cc(CC[C@@H](C)NC(=O)[C@H]3CNCC[C@@H]3c3ccsc3)c2=O)cc1 |
| 24 | COc1ccc(-n2nc(Sc3ccc(Cl)cc3)cc(CC[C@@H](C)NC(=O)[C@H]3CNCC[C@@H]3c3ccc(C(F)(F)F)cc3)c2=O)cc1 |
| 47 | COc1ccc(-n2nc(Sc3ccc(Cl)cc3)cc(CC[C@@H](C)NC(=O)[C@H]3CNCC[C@@H]3c3ccc(C)cc3)c2=O)cc1 |

biological target: T3, Melanocortin receptor 4; test: Inhibition of [125I]-NDP- alpha-MSH binding to human melanocortin 4 receptor expressed in CHO cells; assay type: cell-based

| SMILES | pIC50 |
| --- | --- |
| COc1ccc(-n2nc(Sc3ccc(Cl)cc3)cc(CC[C@H](C)NC(=O)[C@H]3CNCCN3c3ccc(F)cc3)c2=O)cc1 | 5.96 |
| COc1ccc(-n2nc(Sc3ccc(Cl)cc3)cc(CC[C@@H](C)NC(=O)[C@H]3CCNC[C@@H]3Cc3ccc(F)cc3)c2=O)cc1 | 6.41 |
| COc1ccc(-n2nc(Sc3ccc(Cl)cc3)cc(CC[C@@H](C)NC(=O)[C@H]3CNCC[C@@H]3c3ccc4ccccc4c3)c2=O)cc1 | 7.77 |
| COc1ccc(-n2nc(Sc3ccc(Cl)cc3)cc(CC[C@@H](C)NC(=O)[C@H]3CNCC[C@@H]3c3ccc(Cl)cc3Cl)c2=O)cc1 | 8.49 |
| COc1ccc(-n2nc(Sc3ccc(Cl)cc3)cc(CC[C@@H](C)NC(=O)[C@H]3CNCC[C@@H]3c3cccc(C(F)(F)F)c3)c2=O)cc1 | 7.00 |
| COc1ccc(-n2nc(Sc3ccc(Cl)cc3)cc(CC[C@@H](C)NC(=O)[C@H]3CCNC[C@@H]3Cc3ccccc3)c2=O)cc1 | 6.12 |
| COc1ccc(-n2nc(Sc3ccc(Cl)cc3)cc(CC[C@@H](C)NC(=O)[C@H]3CNCC[C@@H]3c3cccc4ccccc34)c2=O)cc1 | 7.05 |
| COc1ccc(-n2nc(Sc3ccc(Cl)cc3)cc(CC[C@@H](C)NC(=O)[C@H]3CNCC[C@@H]3c3cccc(F)c3)c2=O)cc1 | 6.31 |
| COc1ccc(N2N=C(Sc3ccc(Cl)cc3)CC(CC[C@@H](C)NC(=O)C3CNC[C@@H]3c3ccc(F)cc3)C2=O)cc1 (single isomer, unassigned; 67) [listing 1 of 2 here] | 7.74 |
| COc1ccc(-n2nc(Sc3ccc(Cl)cc3)cc(CC[C@@H](C)NC(=O)[C@H]3CNCCN3c3ccc(F)cc3)c2=O)cc1 | 6.02 |
| COc1ccc(-n2nc(Sc3ccc(Cl)cc3)cc(CC[C@H](C)NC(=O)[C@@H]3CNCCN3c3ccc(F)cc3)c2=O)cc1 | 6.00 |
| COc1ccc(-n2nc(Sc3ccc(Cl)cc3)cc(CC[C@@H](C)NC[C@@H]3CNCC[C@H]3c3ccc(F)cc3)c2=O)cc1 | 6.54 |

Continued, values first:

| pIC50 | SMILES |
| --- | --- |
| 7.66 | COc1ccc(N2N=C(Sc3ccc(Cl)cc3)CC(CC[C@@H](C)NC(=O)[C@H]3CCNC[C@@H]3c3ccc(F)cc3)C2=O)cc1 (stereo in doubt; 63) [listing 1 of 2 here] |
| 6.89 | COc1ccc(-n2nc(Sc3ccc(Cl)cc3)cc(CC[C@@H](C)NC(=O)[C@H]3CNCC[C@@H]3c3ccsc3)c2=O)cc1 |
| 8.42 | COc1ccc(-n2nc(Sc3ccc(Cl)cc3)cc(CC[C@@H](C)NC(=O)[C@H]3CNCC[C@@H]3c3ccc(C(F)(F)F)cc3)c2=O)cc1 |
| 8.33 | COc1ccc(-n2nc(Sc3ccc(Cl)cc3)cc(CC[C@@H](C)NC(=O)[C@H]3CNCC[C@@H]3c3ccc(C)cc3)c2=O)cc1 |
